Assay results published in paper PMC3689833, “Neurochemical Changes in the Mouse Hippocampus Underlying the Antidepressant Effect of Genetic Deletion of P2X7 Receptors” (PLoS ONE, 2013).

Experiments:
NA transporter = biological target: T1, NA transporter (Mus musculus, UniProt O55192); assay: 3H-Nisoxetine binding in hippocampal membranes
T1 construct: the tissue from four animals was pooled, homogenized in incubation buffer; from tissue; host or cells: mouse hippocampus membranes (P2rx7+/+ and P2rx7-/- littermates, C57BL/6 background)
T1 sequence (O55192 whole entry): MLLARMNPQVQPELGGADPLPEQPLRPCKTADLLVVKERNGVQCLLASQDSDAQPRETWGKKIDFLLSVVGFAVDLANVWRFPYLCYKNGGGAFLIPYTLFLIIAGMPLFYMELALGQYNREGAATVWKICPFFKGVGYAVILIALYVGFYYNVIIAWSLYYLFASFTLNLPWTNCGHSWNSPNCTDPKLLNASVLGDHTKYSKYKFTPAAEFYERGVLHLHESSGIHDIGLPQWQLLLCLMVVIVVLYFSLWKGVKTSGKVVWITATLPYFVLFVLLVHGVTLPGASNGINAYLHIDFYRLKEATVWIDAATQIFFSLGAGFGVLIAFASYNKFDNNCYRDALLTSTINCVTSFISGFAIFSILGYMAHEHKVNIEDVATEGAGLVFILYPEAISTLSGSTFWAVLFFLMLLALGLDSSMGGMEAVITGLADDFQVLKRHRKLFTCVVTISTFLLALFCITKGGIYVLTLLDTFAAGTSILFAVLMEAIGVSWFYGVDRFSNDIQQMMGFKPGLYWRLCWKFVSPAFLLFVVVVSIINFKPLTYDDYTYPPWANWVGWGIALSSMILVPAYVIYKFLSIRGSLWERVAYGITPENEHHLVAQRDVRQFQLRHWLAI
Protocol: Male mice (80–85 days old) were decapitated, and the hippocampus was dissected, weighted, and frozen overnight at −70°C. The next day, the tissue from four animals was pooled, homogenized in incubation buffer using an Ultra-Turrax and centrifuged at 40 000×g for 15 minutes. The pellet was washed by repeated resuspension in buffer, followed by centrifugation. […] Eight ligand concentrations (0.1–4 nM) were used in three parallels. The incubation time was 1 hour at 25°C for citalopram, 2.5 hrs at 4°C for nisoxetine and 30 minutes at 25°C for dihydroalprenolol. The non-specific binding was determined in the presence of 1 µM paroxetine (citalopram), 10 µM desmethylimipramine (nisoxetine) and 1 µM (-) alprenolol (DHA). The membranes of P2rx7+/+ and P2rx7−/− mice were assayed in parallel. The binding was terminated using vacuum filtration on GF/B filters soaked in 0.05% polyethylenimine. The Kd and the number of binding sites (Bmax) were calculated using Prism3 software. The protein concentration (approx. 0.5 mg/ml) was measured according to Lowry method using CuEDTA.

β-adrenergic receptors = assay: 3H-Dihydroalprenolol binding in hippocampal membranes; design: species or system mouse
Protocol: Male mice (80–85 days old) were decapitated, and the hippocampus was dissected, weighted, and frozen overnight at −70°C. The next day, the tissue from four animals was pooled, homogenized in incubation buffer using an Ultra-Turrax and centrifuged at 40 000×g for 15 minutes. The pellet was washed by repeated resuspension in buffer, followed by centrifugation. […] Eight ligand concentrations (0.1–4 nM) were used in three parallels. […] The membranes of P2rx7+/+ and P2rx7−/− mice were assayed in parallel. The binding was terminated using vacuum filtration on GF/B filters soaked in 0.05% polyethylenimine. The Kd and the number of binding sites (Bmax) were calculated using Prism3 software. The protein concentration (approx. 0.5 mg/ml) was measured according to Lowry method [50] using CuEDTA.

[1] = hippocampal membranes of P2rx7+/+ mice
[2] = hippocampal membranes of P2rx7−/− mice

Row | SMILES | Kd (NA transporter) | Bmax (NA transporter; [1]) | Bmax (NA transporter; [2]) | Kd (β-adrenergic receptors; [1]) | Kd (β-adrenergic receptors; [2])
1 | CNCCC(Oc1ccccc1OC)c1ccccc1 (centres unmarked) [^3H-nisoxetine] | 0.7 ± 0.05 nM | 126.8±4.9 fmol/mg protein | 131.4±7.5 fmol/mg protein |  | 
2 | CCCc1ccccc1OCC(O)CNC(C)C (centres unmarked) [^3H-dihydroalprenolol] |  |  |  | 0.5 ± 0.02 nM | 0.4 ± 0.02 nM
